PubChem BioAssay (NCI)
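Five concentrations, 48 hours, 96-well plates. At the GI50, growth is halved. TGI denotes the concentration required for complete inhibition of growth.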

Columns and labels:
Assay in all cases: inhibition of tumour cell growth, NCI panel, 48 h
[1] = tested on: A549 NSCLC
[2] = tested on: HOP-92 NSCLC
[3] = tested on: ACHN renal
[4] = tested on: MOLT-4 leukemia
[5] = tested on: SF-539 CNS
[6] = tested on: SNB-19 CNS
[7] = tested on: HL-60(TB) leukemia
[8] = tested on: RXF 393 renal
[9] = tested on: OVCAR-8 ovarian
[10] = tested on: HT29 colon
[11] = tested on: HCT-15 colon
[12] = tested on: U251 CNS
[13] = tested on: HOP-62 NSCLC
[14] = tested on: RPMI-8226 leukemia
[15] = tested on: MCF7 breast
[16] = tested on: SF-268 CNS
[17] = tested on: HCT-116 colon
[18] = tested on: OVCAR-5 ovarian
[19] = tested on: CAKI-1 renal
[20] = tested on: NCI/ADR-RES ovarian
[21] = tested on: CCRF-CEM leukemia
[22] = tested on: NCI-H522 lung
[23] = tested on: HCC-2998 colon
[24] = tested on: OVCAR-3 ovarian
[25] = tested on: SN12C renal
[26] = tested on: UACC-62 melanoma
[27] = tested on: K-562 leukemia
[28] = tested on: SK-MEL-5 melanoma
[29] = tested on: EKVX NSCLC
[30] = tested on: SK-MEL-28 melanoma
[31] = tested on: SW-620 colon
[32] = tested on: UO-31 renal
[33] = tested on: KM12 colon
[34] = tested on: UACC-257 melanoma
[35] = tested on: SK-MEL-2 melanoma
[36] = tested on: HS 578T breast
[37] = tested on: 786-0 renal
[38] = tested on: OVCAR-4 ovarian
[39] = tested on: PC-3 prostate
[40] = tested on: DU-145 prostate
[41] = tested on: MDA-MB-435
[42] = tested on: SR leukemia
[43] = tested on: SF-295 CNS
[44] = tested on: SK-OV-3 ovarian
[45] = tested on: SNB-75 CNS
[46] = tested on: BT-549 breast
[47] = tested on: T-47D breast
[48] = tested on: IGROV1 ovarian
[49] = tested on: MDA-MB-231 breast
[50] = tested on: COLO 205 colon
[51] = tested on: NCI-H23 lung
[52] = tested on: MALME-3M melanoma
[53] = tested on: LOX IMVI melanoma
[54] = tested on: NCI-H226 lung
[55] = tested on: NCI-H460 lung
[56] = tested on: A498 renal
[57] = tested on: TK-10 renal
[58] = tested on: M14 melanoma

Structure (SMILES): Nc1nc(Cl)c2ncn(Cc3ccc(CCl)cc3)c2n1
- TGI [1]: 76.2 µM
- TGI [2]: > 100 µM
- TGI [3]: 25.1 µM
- TGI [4]: > 100 µM
- TGI [5]: 9.89 µM
- TGI [6]: 20 µM
- TGI [7]: > 100 µM
- TGI [8]: 7.26 µM
- TGI [9]: 32.8 µM
- TGI [10]: 27.6 µM
- TGI [11]: 19.8 µM
- TGI [12]: 12 µM
- TGI [13]: 27.3 µM
- TGI [14]: > 100 µM
- TGI [15]: 16.8 µM
- TGI [16]: 8.38 µM
- TGI [17]: 14.5 µM
- TGI [18]: 14.9 µM
- TGI [19]: 9.87 µM
- TGI [20]: 26.7 µM
- TGI [21]: > 100 µM
- TGI [22]: 25.9 µM
- TGI [23]: 8.95 µM
- TGI [24]: 5.5 µM
- TGI [25]: 27.1 µM
- TGI [26]: 8.18 µM
- TGI [27]: > 100 µM
- TGI [28]: 31 µM
- TGI [29]: 7.22 µM
- TGI [30]: 44.4 µM
- TGI [31]: 13.8 µM
- TGI [32]: 25.4 µM
- TGI [33]: 22.9 µM
- TGI [34]: 47.9 µM
- TGI [35]: 29.1 µM
- TGI [36]: > 100 µM
- TGI [37]: 93.9 µM
- TGI [38]: 30.1 µM
- TGI [39]: 25 µM
- TGI [40]: 19.5 µM
- TGI [41]: 42.5 µM
- TGI [42]: 9.37 µM
- TGI [43]: 27.8 µM
- TGI [44]: 31.1 µM
- TGI [45]: 90.2 µM
- TGI [46]: 24.5 µM
- TGI [47]: 40.1 µM
- TGI [48]: 22.9 µM
- TGI [49]: 34.6 µM
- TGI [50]: 13.4 µM
- TGI [51]: 30.4 µM
- TGI [52]: 27.3 µM
- TGI [53]: 43.9 µM
- TGI [54]: 37.1 µM
- TGI [55]: 20 µM
- TGI [56]: 84.6 µM
- TGI [57]: 40.5 µM
- TGI [58]: 37.7 µM

Structure (SMILES): COC(=O)C1=C(C(=O)ON)C2C=CC1(C(Cc1ccccc1)Nc1ccccc1)O2 (stereo not drawn)
- GI50 [1]: 15.2 µM
- TGI [1]: 29.4 µM
- GI50 [2]: 1.51 µM
- TGI [2]: 2.91 µM
- GI50 [3]: 1.63 µM
- TGI [3]: 2.99 µM
- GI50 [4]: 2.9 µM
- TGI [4]: 9.49 µM
- GI50 [5]: 11.5 µM
- TGI [5]: 23.7 µM
- GI50 [6]: 14.8 µM
- TGI [6]: 27.9 µM
- GI50 [7]: 2.89 µM
- TGI [7]: 10.1 µM
- GI50 [8]: 1.78 µM
- TGI [8]: 3.2 µM
- GI50 [9]: 2.75 µM
- TGI [9]: 8.71 µM
- GI50 [10]: 1.79 µM
- TGI [10]: 3.42 µM
- GI50 [11]: 1.73 µM
- TGI [11]: 3.5 µM
- GI50 [12]: 14.2 µM
- TGI [12]: 27.2 µM
- GI50 [13]: 14.4 µM
- TGI [13]: 27.9 µM
- GI50 [14]: 2.33 µM
- TGI [14]: 6.51 µM
- GI50 [15]: 2.42 µM
- TGI [15]: 6.59 µM
- GI50 [16]: 10.5 µM
- TGI [16]: 23 µM
- GI50 [17]: 1.77 µM
- TGI [17]: 3.24 µM
- GI50 [18]: 3.27 µM
- TGI [18]: 12.1 µM
- GI50 [19]: 1.63 µM
- TGI [19]: 3.03 µM
- GI50 [20]: 14.7 µM
- TGI [20]: 36.2 µM
- GI50 [21]: 2.23 µM
- TGI [21]: 16.9 µM
- GI50 [22]: 1.45 µM
- TGI [22]: 2.98 µM
- GI50 [23]: 16.9 µM
- TGI [23]: 32.3 µM
- GI50 [24]: 1.72 µM
- TGI [24]: 3.11 µM
- GI50 [25]: 1.99 µM
- TGI [25]: 4.45 µM
- GI50 [26]: 2.24 µM
- TGI [26]: 6.66 µM
- GI50 [28]: 14.1 µM
- TGI [28]: 27.2 µM
- GI50 [29]: 1.75 µM
- TGI [29]: 3.51 µM
- GI50 [30]: 1.92 µM
- TGI [30]: 3.66 µM
- GI50 [32]: 1.47 µM
- TGI [32]: 2.8 µM
- GI50 [33]: 15.1 µM
- TGI [33]: 30 µM
- GI50 [34]: 1.81 µM
- TGI [34]: 3.34 µM
- GI50 [35]: 11.6 µM
- TGI [35]: 24.4 µM
- GI50 [36]: 25.3 µM
- TGI [36]: > 100 µM
- GI50 [37]: 1.76 µM
- TGI [37]: 3.26 µM
- GI50 [38]: 1.66 µM
- TGI [38]: 3.12 µM
- GI50 [39]: 5.58 µM
- TGI [39]: 19.9 µM
- GI50 [40]: 2.01 µM
- TGI [40]: 4.18 µM
- GI50 [41]: 1.92 µM
- TGI [41]: 3.86 µM
- GI50 [42]: 2.67 µM
- TGI [42]: 43.6 µM
- GI50 [43]: 13.8 µM
- TGI [43]: 26.7 µM
- GI50 [44]: 14.8 µM
- TGI [44]: 28 µM
- GI50 [45]: 8.9 µM
- TGI [45]: 21.2 µM
- GI50 [46]: 2.07 µM
- TGI [46]: 4.87 µM
- GI50 [47]: 1.46 µM
- TGI [47]: 3.25 µM
- GI50 [48]: 1.87 µM
- TGI [48]: 3.49 µM
- GI50 [49]: 1.87 µM
- TGI [49]: 3.59 µM
- GI50 [50]: 1.78 µM
- TGI [50]: 3.33 µM
- GI50 [51]: 12 µM
- TGI [51]: 28.1 µM
- GI50 [52]: 1.76 µM
- TGI [52]: 3.33 µM
- GI50 [53]: 1.74 µM
- TGI [53]: 3.24 µM
- GI50 [54]: 12.8 µM
- TGI [54]: 25.6 µM
- GI50 [55]: 18 µM
- TGI [55]: 40.7 µM
- GI50 [56]: 14.7 µM
- TGI [56]: 27.9 µM
- GI50 [57]: 1.71 µM
- TGI [57]: 3.08 µM
